Results: patent US3980703A, “Extraction of carboxylic acids from dilute aqueous solutions” (The Dow Chemical Company, priority 1975, dated 1976)

Experiments:
Format in all cases: physicochemical
[1] = Extraction of acetic acid from 18% aqueous NaCl with polar extractants, distribution coefficient by radiometric counting (Example 1); conditions: 1920 ppm acetic acid in 18% aqueous NaCl, equal volumes, 30 min
Excerpt: (§1) A trace quantity of radioactive carbon-14 labeled acetic acid was included. Portions of this solution were shaken for thirty minutes with equal volumes of extractant solutions having the compositions set out in the following table. The phases were allowed to disengage, separated and their relative acetic acid concentrations determined by radiometric counting in a scintillation counter. The distribution coefficient (ratio of acetic acid concentrations in organic and aqueous phase) for each extraction is also given in the table.

[2] = Extraction of acetic acid with TOPO solutions, distribution coefficient (Example 2); conditions: about 0.025 molar acid
Excerpt: as §1, with “A solution of 1920 ppm (approximately 0.2 percent) of acetic acid in 18% aqueous NaCl was made up. A” for “A”
(§2) In the manner of Example 1, about 0.025 molar aqueous solutions of acetic, glycolic and lactic acids were extracted with equal volumes of TOPO (trioctyl phosphine oxide) solutions in kerosene or Chevron 3.

[3] = Extraction of glycolic acid with TOPO solutions, distribution coefficient (Example 2); conditions: for Distribution Coefficient For: Glycolic: about 0.025 molar acid
Excerpt: as §1, with “A solution of 1920 ppm (approximately 0.2 percent) of acetic acid in 18% aqueous NaCl was made up. A” for “A”
as §2

[4] = Extraction of lactic acid with TOPO solutions, distribution coefficient (Example 2); conditions: about 0.025 molar acid
Excerpt: as §1, with “A solution of 1920 ppm (approximately 0.2 percent) of acetic acid in 18% aqueous NaCl was made up. A” for “A”
as §2

[5] = Extraction of acrylic acid with tetra (n-butyl) urea, distribution coefficient by titration (Example 3); conditions: 28% extractant in cyclohexane; 1.9% acrylic acid in water; equal volumes
Excerpt: (§3) A 1.9% solution of acrylic acid in water was equilibrated with an equal volume of a 28% solution of tetra-(n-butyl) urea in cyclohexane. […] A similar experiment with 0.2% acetic acid in 18% sodium chloride as the aqueous phase, and 0.5 M tetrabutyl urea in Chevron 25 as the extractant, gave a distribution coefficient of 0.40.

[6] = Extraction of acetic acid with tetra (n-butyl) urea, distribution coefficient (Example 3); conditions: 0.5 M extractant in Chevron 25; 0.2% acetic acid in 18% sodium chloride
Excerpt: as §3

[7] = 0.2 M TOPO in kerosene, aqueous phase 1 Molar NaCl
[8] = 0.5 M TOPO in Chevron 3, aqueous phase 1 Molar NaCl
[9] = 0.5 M TOPO in Chevron 3, aqueous phase water

## CCCC[S+]([O-])CCCC [Di(n-butyl) sulfoxide]
[1]; 0.1 M extractant in Chevron 25
  Distribution coefficient (ratio of acetic acid concentrations in organic and aqueous phase): 0.18
[1]; 0.5 M extractant in Chevron 25
  Distribution coefficient (ratio of acetic acid concentrations in organic and aqueous phase): 1.00

## CCCCCCCCP(=O)(CCCCCCCC)CCCCCCCC [Trioctyl phosphine oxide, trioctyl phosphine oxide]
[1]; 0.5 M extractant in Chevron 25
  Distribution coefficient (ratio of acetic acid concentrations in organic and aqueous phase): 6.1
[2]; [7]
  Distribution Coefficient For: Acetic: 1.46
[2]; [8]
  Distribution Coefficient For: Acetic: 3.2
[2]; [9]
  Distribution Coefficient For: Acetic: 2.8
[3]; [7]
  Distribution Coefficient For: Glycolic: 0.13
[3]; [8]
  Distribution Coefficient For: Glycolic: 0.39
[3]; [9]
  Distribution Coefficient For: Glycolic: 0.35
[4]; [7]
  Distribution Coefficient For: Lactic: 0.40
[4]; [8]
  Distribution Coefficient For: Lactic: 1.4
[4]; [9]
  Distribution Coefficient For: Lactic: 1.02

## O=C(O)CO [glycolic acid]
[3]; TOPO solutions in kerosene or Chevron 3
  extraction effectiveness of glycolic acid relative to acetic and lactic acids: much less effectively extracted than acetic and lactic acids

## CCCCN(CCCC)C(=O)N(CCCC)CCCC [tetra-(n-butyl) urea]
[5]
  distribution coefficient for the acrylic acid (organic/aqueous): 1.05
[6]
  distribution coefficient (acetic acid): 0.40
